From ChEMBL document CHEMBL3885881, “DrugMatrix”

Species on record: Rattus norvegicus
Experiment: DrugMatrix - Regimen: Daily Repeat
Assay type: toxicity, organism-based, Sprague-Dawley
Design: regimen Daily Repeat, gender Male, age 6-8 weeks
Conditions: in vivo, po, route oral GAVAGE, vehicle 100 % SALINE; for ABSOLUTE BASOPHIL / ABSOLUTE EOSINOPHIL / ABSOLUTE LYMPHOCYTE / ABSOLUTE MONOCYTE / ABSOLUTE SEGMENTED NEUTROPHIL / BASOPHIL / EOSINOPHIL / ERYTHROCYTE COUNT / HEMATOCRIT / HEMOGLOBIN / LEUKOCYTE COUNT / LYMPHOCYTE / MEAN CORPUSCULAR HEMOGLOBIN / MEAN CORPUSCULAR HEMOGLOBIN CONCENTRATION / MEAN CORPUSCULAR VOLUME / MONOCYTE / NEUTROPHIL / NUCLEATED RED BLOOD CELLS / PLATELET COUNT: tissue Blood; for ALANINE AMINOTRANSFERASE / ALBUMIN / ALKALINE PHOSPHATASE / ASPARTATE AMINOTRANSFERASE / BLOOD UREA NITROGEN / CARBON DIOXIDE / CHLORIDE / CHOLESTEROL / CREATINE PHOSPHOKINASE / CREATININE / GLUCOSE / LACTATE DEHYDROGENASE / LIPASE / PHOSPHORUS / POTASSIUM / SODIUM / TOTAL BILIRUBIN / TOTAL PROTEIN / URIC ACID: tissue Plasma
[1] = 3000 mg/kg, […], dose level Low, time 7 day
[2] = 6000 mg/kg, 72 h, dose level High, time 3 day
[3] = 6000 mg/kg, […], dose level High, time 7 day

## CCO [ALCOHOL]
[1]
  ABSOLUTE BASOPHIL: 0 CELLS/uL
  ABSOLUTE EOSINOPHIL: 0 CELLS/uL
  ABSOLUTE LYMPHOCYTE: 9669 CELLS/uL
  ABSOLUTE MONOCYTE: 317.33 CELLS/uL
  ABSOLUTE SEGMENTED NEUTROPHIL: 1063.67 CELLS/uL
  BASOPHIL: 0%
  EOSINOPHIL: 0%
  ERYTHROCYTE COUNT: 5.39 x10E6/uL
  HEMATOCRIT: 34.88%
  HEMOGLOBIN: 13.85 G/DL
  LEUKOCYTE COUNT: 11.05 x10E3/uL
  LYMPHOCYTE: 87%
  MEAN CORPUSCULAR HEMOGLOBIN: 25.73 pg
  MEAN CORPUSCULAR HEMOGLOBIN CONCENTRATION: 39.75 G/DL
  MEAN CORPUSCULAR VOLUME: 64.77 fL
  MONOCYTE: 2.83%
  NEUTROPHIL: 10.17%
  NUCLEATED RED BLOOD CELLS: 0 /100WBC
  PLATELET COUNT: 1110 x10E3/uL
  ALANINE AMINOTRANSFERASE: 51.67 u/L
  ALBUMIN: 4.5 G/DL
  ALKALINE PHOSPHATASE: 281.33 u/L
  ASPARTATE AMINOTRANSFERASE: 82.67 u/L
  BLOOD UREA NITROGEN: 15 mg/dL
  CARBON DIOXIDE: 31 mmol/L
  CHLORIDE: 98.33 MEQ/L
  CHOLESTEROL: 69.83 mg/dL
  CREATINE PHOSPHOKINASE: 250 u/L
  CREATININE: 0.19 mg/dL
  GLUCOSE: 135.67 mg/dL
  LACTATE DEHYDROGENASE: 123.5 u/L
  LIPASE: 10.17 u/L
  PHOSPHORUS: 10.85 mg/dL
  POTASSIUM: 5.95 MEQ/L
  SODIUM: 143.15 MEQ/L
  TOTAL BILIRUBIN: 0.22 mg/dL
  TOTAL PROTEIN: 5.93 G/DL
  URIC ACID: 0.68 mg/dL
[2]
  ABSOLUTE BASOPHIL: 0 CELLS/uL
  ABSOLUTE EOSINOPHIL: 0 CELLS/uL
  ABSOLUTE LYMPHOCYTE: 11300.5 CELLS/uL
  ABSOLUTE MONOCYTE: 91.33 CELLS/uL
  ABSOLUTE SEGMENTED NEUTROPHIL: 1124.83 CELLS/uL
  BASOPHIL: 0%
  EOSINOPHIL: 0%
  ERYTHROCYTE COUNT: 5.6 x10E6/uL
  HEMATOCRIT: 35.9%
  HEMOGLOBIN: 13 G/DL
  LEUKOCYTE COUNT: 12.52 x10E3/uL
  LYMPHOCYTE: 90.17%
  MEAN CORPUSCULAR HEMOGLOBIN: 23.25 pg
  MEAN CORPUSCULAR HEMOGLOBIN CONCENTRATION: 36.23 G/DL
  MEAN CORPUSCULAR VOLUME: 64.17 fL
  MONOCYTE: 0.67%
  NEUTROPHIL: 9.17%
  NUCLEATED RED BLOOD CELLS: 0 /100WBC
  PLATELET COUNT: 1089.17 x10E3/uL
  ALANINE AMINOTRANSFERASE: 60.5 u/L
  ALBUMIN: 4.18 G/DL
  ALKALINE PHOSPHATASE: 281 u/L
  ASPARTATE AMINOTRANSFERASE: 86.33 u/L
  BLOOD UREA NITROGEN: 12.33 mg/dL
  CARBON DIOXIDE: 28.33 mmol/L
  CHLORIDE: 101.33 MEQ/L
  CHOLESTEROL: 80.33 mg/dL
  CREATINE PHOSPHOKINASE: 216.67 u/L
  CREATININE: 0.46 mg/dL
  GLUCOSE: 142.83 mg/dL
  LACTATE DEHYDROGENASE: 151.83 u/L
  LIPASE: 9.83 u/L
  PHOSPHORUS: 11.08 mg/dL
  POTASSIUM: 5.96 MEQ/L
  SODIUM: 146.62 MEQ/L
  TOTAL BILIRUBIN: 0.17 mg/dL
  TOTAL PROTEIN: 6.02 G/DL
  URIC ACID: 0.97 mg/dL
[3]
  ABSOLUTE BASOPHIL: 0 CELLS/uL
  ABSOLUTE EOSINOPHIL: 38 CELLS/uL
  ABSOLUTE LYMPHOCYTE: 9373.67 CELLS/uL
  ABSOLUTE MONOCYTE: 256.5 CELLS/uL
  ABSOLUTE SEGMENTED NEUTROPHIL: 1531.83 CELLS/uL
  BASOPHIL: 0%
  EOSINOPHIL: 0.33%
  ERYTHROCYTE COUNT: 5.4 x10E6/uL
  HEMATOCRIT: 33.48%
  HEMOGLOBIN: 13.42 G/DL
  LEUKOCYTE COUNT: 11.2 x10E3/uL
  LYMPHOCYTE: 84.5%
  MEAN CORPUSCULAR HEMOGLOBIN: 24.92 pg
  MEAN CORPUSCULAR HEMOGLOBIN CONCENTRATION: 40.07 G/DL
  MEAN CORPUSCULAR VOLUME: 62.18 fL
  MONOCYTE: 2.33%
  NEUTROPHIL: 12.83%
  NUCLEATED RED BLOOD CELLS: 0 /100WBC
  PLATELET COUNT: 1292.83 x10E3/uL
  ALANINE AMINOTRANSFERASE: 65.5 u/L
  ALBUMIN: 4.38 G/DL
  ALKALINE PHOSPHATASE: 202.33 u/L
  ASPARTATE AMINOTRANSFERASE: 86.17 u/L
  BLOOD UREA NITROGEN: 13 mg/dL
  CARBON DIOXIDE: 29.33 mmol/L
  CHLORIDE: 100.17 MEQ/L
  CHOLESTEROL: 67.17 mg/dL
  CREATINE PHOSPHOKINASE: 206 u/L
  CREATININE: 0.19 mg/dL
  GLUCOSE: 138.83 mg/dL
  LACTATE DEHYDROGENASE: 109 u/L
  LIPASE: 10 u/L
  PHOSPHORUS: 10.48 mg/dL
  POTASSIUM: 5.88 MEQ/L
  SODIUM: 144.13 MEQ/L
  TOTAL BILIRUBIN: 0.18 mg/dL
  TOTAL PROTEIN: 5.83 G/DL
  URIC ACID: 0.88 mg/dL
